Reference: the NIST ThermoML archive (doi:10.1016/j.tca.2006.04.001)
± gives the expanded uncertainty stated by the source.

Details: Liquid, Pycnometric method

CCCCCCCCCCCCCCCCCCCCC [heneicosane]
specific volume (313.65 K): 0.001285 ± 1.9e-05 m3/kg | specific volume (315.75 K): 0.001283 ± 1.9e-05 m3/kg | specific volume (317.65 K): 0.001286 ± 1.9e-05 m3/kg | specific volume (319.65 K): 0.001288 ± 1.9e-05 m3/kg | specific volume (321.55 K): 0.001289 ± 1.9e-05 m3/kg | specific volume (323.55 K): 0.001291 ± 1.9e-05 m3/kg | specific volume (325.45 K): 0.001294 ± 1.9e-05 m3/kg | specific volume (327.45 K): 0.001296 ± 1.9e-05 m3/kg | specific volume (329.35 K): 0.001299 ± 1.9e-05 m3/kg | specific volume (331.25 K): 0.001302 ± 1.9e-05 m3/kg | specific volume (333.25 K): 0.001302 ± 1.9e-05 m3/kg | specific volume (335.15 K): 0.001304 ± 2e-05 m3/kg | specific volume (337.15 K): 0.001307 ± 2e-05 m3/kg | specific volume (339.05 K): 0.001309 ± 2e-05 m3/kg | specific volume (341.05 K): 0.00131 ± 2e-05 m3/kg | specific volume (342.95 K): 0.001313 ± 2e-05 m3/kg | specific volume (344.85 K): 0.001315 ± 2e-05 m3/kg | specific volume (346.85 K): 0.001317 ± 2e-05 m3/kg | specific volume (348.75 K): 0.001321 ± 2e-05 m3/kg | specific volume (350.75 K): 0.001324 ± 2e-05 m3/kg | specific volume (352.65 K): 0.001325 ± 2e-05 m3/kg | specific volume (354.65 K): 0.001329 ± 2e-05 m3/kg | specific volume (354.85 K): 0.001329 ± 2e-05 m3/kg | specific volume (356.55 K): 0.001331 ± 2e-05 m3/kg | specific volume (358.45 K): 0.001333 ± 2e-05 m3/kg | specific volume (360.45 K): 0.001335 ± 2e-05 m3/kg | specific volume (362.35 K): 0.001337 ± 2e-05 m3/kg | specific volume (364.35 K): 0.00134 ± 2e-05 m3/kg | specific volume (366.25 K): 0.001342 ± 2e-05 m3/kg | specific volume (368.15 K): 0.001344 ± 2e-05 m3/kg | specific volume (370.15 K): 0.001349 ± 2e-05 m3/kg | specific volume (372.05 K): 0.00135 ± 2e-05 m3/kg | specific volume (374.05 K): 0.001354 ± 2e-05 m3/kg | specific volume (375.45 K): 0.001353 ± 2e-05 m3/kg | specific volume (375.95 K): 0.001354 ± 2e-05 m3/kg | specific volume (377.95 K): 0.001358 ± 2e-05 m3/kg | specific volume (379.85 K): 0.001361 ± 2.1e-05 m3/kg | specific volume (381.75 K): 0.001362 ± 2.1e-05 m3/kg | specific volume (383.75 K): 0.001366 ± 2.1e-05 m3/kg | specific volume (385.65 K): 0.001367 ± 2.1e-05 m3/kg | specific volume (387.65 K): 0.001369 ± 2.1e-05 m3/kg | specific volume (389.55 K): 0.001373 ± 2.1e-05 m3/kg | specific volume (391.55 K): 0.001373 ± 2.1e-05 m3/kg | specific volume (393.45 K): 0.001377 ± 2.1e-05 m3/kg | specific volume (395.35 K): 0.00138 ± 2.1e-05 m3/kg | specific volume (396.05 K): 0.00138 ± 2.1e-05 m3/kg | specific volume (397.35 K): 0.001381 ± 2.1e-05 m3/kg | specific volume (399.25 K): 0.001386 ± 2.1e-05 m3/kg | specific volume (401.25 K): 0.001384 ± 2.1e-05 m3/kg | specific volume (403.15 K): 0.001387 ± 2.1e-05 m3/kg | specific volume (405.15 K): 0.001392 ± 2.1e-05 m3/kg | specific volume (407.05 K): 0.001394 ± 2.1e-05 m3/kg | specific volume (408.95 K): 0.001396 ± 2.1e-05 m3/kg | specific volume (410.95 K): 0.001401 ± 2.1e-05 m3/kg | specific volume (412.85 K): 0.001401 ± 2.1e-05 m3/kg | specific volume (414.85 K): 0.001404 ± 2.1e-05 m3/kg | specific volume (416.65 K): 0.001408 ± 2.1e-05 m3/kg | specific volume (416.75 K): 0.001409 ± 2.1e-05 m3/kg | specific volume (418.65 K): 0.00141 ± 2.1e-05 m3/kg | specific volume (420.65 K): 0.001411 ± 2.1e-05 m3/kg | specific volume (422.55 K): 0.001417 ± 2.1e-05 m3/kg | specific volume (424.55 K): 0.001419 ± 2.1e-05 m3/kg | specific volume (426.45 K): 0.001421 ± 2.1e-05 m3/kg | specific volume (428.45 K): 0.001423 ± 2.1e-05 m3/kg | specific volume (430.35 K): 0.001426 ± 2.2e-05 m3/kg | specific volume (432.25 K): 0.001432 ± 2.2e-05 m3/kg | specific volume (434.25 K): 0.001432 ± 2.2e-05 m3/kg | specific volume (436.15 K): 0.001436 ± 2.2e-05 m3/kg | specific volume (437.25 K): 0.001437 ± 2.2e-05 m3/kg | specific volume (438.15 K): 0.001437 ± 2.2e-05 m3/kg | specific volume (440.05 K): 0.001443 ± 2.2e-05 m3/kg | specific volume (442.05 K): 0.001444 ± 2.2e-05 m3/kg | specific volume (443.95 K): 0.001448 ± 2.2e-05 m3/kg | specific volume (445.85 K): 0.00145 ± 2.2e-05 m3/kg | specific volume (447.85 K): 0.001454 ± 2.2e-05 m3/kg | specific volume (449.75 K): 0.001455 ± 2.2e-05 m3/kg | specific volume (451.75 K): 0.001458 ± 2.2e-05 m3/kg | specific volume (453.65 K): 0.00146 ± 2.2e-05 m3/kg | specific volume (455.65 K): 0.001464 ± 2.2e-05 m3/kg | specific volume (457.55 K): 0.001467 ± 2.2e-05 m3/kg | specific volume (457.85 K): 0.001468 ± 2.2e-05 m3/kg | specific volume (459.45 K): 0.00147 ± 2.2e-05 m3/kg | specific volume (461.45 K): 0.001471 ± 2.2e-05 m3/kg | specific volume (463.35 K): 0.001476 ± 2.2e-05 m3/kg | specific volume (465.35 K): 0.001479 ± 2.2e-05 m3/kg | specific volume (467.25 K): 0.001484 ± 2.2e-05 m3/kg | specific volume (469.15 K): 0.001485 ± 2.2e-05 m3/kg | specific volume (471.15 K): 0.001489 ± 2.2e-05 m3/kg | specific volume (473.05 K): 0.001491 ± 2.2e-05 m3/kg | specific volume (475.05 K): 0.001492 ± 2.2e-05 m3/kg | specific volume (476.95 K): 0.001497 ± 2.3e-05 m3/kg | specific volume (478.45 K): 0.001498 ± 2.3e-05 m3/kg | specific volume (478.95 K): 0.001502 ± 2.3e-05 m3/kg | specific volume (480.85 K): 0.001503 ± 2.3e-05 m3/kg | specific volume (482.75 K): 0.001505 ± 2.3e-05 m3/kg | specific volume (484.75 K): 0.001511 ± 2.3e-05 m3/kg | specific volume (486.65 K): 0.001513 ± 2.3e-05 m3/kg | specific volume (488.65 K): 0.001516 ± 2.3e-05 m3/kg | specific volume (488.75 K): 0.001517 ± 2.3e-05 m3/kg | specific volume (490.55 K): 0.001519 ± 2.3e-05 m3/kg | specific volume (492.55 K): 0.001521 ± 2.3e-05 m3/kg | specific volume (494.45 K): 0.001523 ± 2.3e-05 m3/kg | specific volume (496.35 K): 0.00153 ± 2.3e-05 m3/kg | specific volume (498.35 K): 0.001531 ± 2.3e-05 m3/kg | specific volume (500.25 K): 0.001537 ± 2.3e-05 m3/kg | specific volume (502.25 K): 0.001536 ± 2.3e-05 m3/kg | specific volume (504.15 K): 0.001543 ± 2.3e-05 m3/kg | specific volume (506.15 K): 0.001544 ± 2.3e-05 m3/kg | specific volume (508.05 K): 0.00155 ± 2.3e-05 m3/kg | specific volume (509.95 K): 0.001551 ± 2.3e-05 m3/kg | specific volume (511.95 K): 0.001554 ± 2.3e-05 m3/kg | specific volume (513.85 K): 0.001559 ± 2.3e-05 m3/kg | specific volume (515.85 K): 0.001564 ± 2.4e-05 m3/kg | specific volume (517.75 K): 0.001567 ± 2.4e-05 m3/kg | specific volume (519.65 K): 0.001569 ± 2.4e-05 m3/kg | specific volume (521.65 K): 0.001575 ± 2.4e-05 m3/kg | specific volume (523.55 K): 0.001575 ± 2.4e-05 m3/kg | specific volume (525.55 K): 0.001582 ± 2.4e-05 m3/kg | specific volume (527.45 K): 0.001586 ± 2.4e-05 m3/kg | specific volume (529.45 K): 0.001588 ± 2.4e-05 m3/kg | specific volume (531.35 K): 0.001588 ± 2.4e-05 m3/kg | specific volume (533.25 K): 0.001596 ± 2.4e-05 m3/kg | specific volume (535.25 K): 0.0016 ± 2.4e-05 m3/kg | specific volume (537.15 K): 0.001603 ± 2.4e-05 m3/kg | specific volume (539.15 K): 0.001606 ± 2.4e-05 m3/kg | specific volume (541.05 K): 0.001612 ± 2.4e-05 m3/kg | specific volume (543.05 K): 0.001614 ± 2.4e-05 m3/kg | specific volume (544.95 K): 0.001617 ± 2.4e-05 m3/kg | specific volume (546.85 K): 0.001621 ± 2.4e-05 m3/kg | specific volume (548.85 K): 0.001626 ± 2.4e-05 m3/kg | specific volume (550.75 K): 0.001626 ± 2.4e-05 m3/kg | specific volume (552.75 K): 0.001634 ± 2.5e-05 m3/kg | specific volume (554.65 K): 0.001635 ± 2.5e-05 m3/kg | specific volume (556.65 K): 0.001639 ± 2.5e-05 m3/kg | specific volume (558.55 K): 0.001643 ± 2.5e-05 m3/kg | specific volume (560.45 K): 0.001648 ± 2.5e-05 m3/kg | specific volume (562.45 K): 0.00165 ± 2.5e-05 m3/kg | specific volume (564.35 K): 0.001657 ± 2.5e-05 m3/kg | specific volume (566.35 K): 0.001659 ± 2.5e-05 m3/kg

CCCCCCCCCCCCCCCC [hexadecane]
specific volume (298 K): 0.001313 ± 2e-05 m3/kg | specific volume (323 K): 0.001344 ± 2e-05 m3/kg | specific volume (348 K): 0.001376 ± 2.1e-05 m3/kg | specific volume (373 K): 0.001411 ± 2.1e-05 m3/kg | specific volume (398 K): 0.001447 ± 2.2e-05 m3/kg | specific volume (423 K): 0.001486 ± 2.2e-05 m3/kg | specific volume (448 K): 0.001529 ± 2.3e-05 m3/kg | specific volume (473 K): 0.001575 ± 2.4e-05 m3/kg | specific volume (498 K): 0.001626 ± 2.4e-05 m3/kg | specific volume (523 K): 0.001682 ± 2.5e-05 m3/kg | specific volume (548 K): 0.001744 ± 2.6e-05 m3/kg | specific volume (573 K): 0.001811 ± 2.7e-05 m3/kg
